Results from patent US8906925B2, “Pyrido[4,3-B]indoles containing rigid moieties” (Medivation Technologies, Inc., priority 2008, dated 2014).
Values joined by “and” are separate entries in the source; they are usually repeats but may differ in a detail not shown here. Identical values can stand only once.

Tests used:
[1] = target: histamine receptor H1 (Homo sapiens, UniProt P35367); experiment: Histamine H1 radioligand binding ([3H]Pyrilamine); conditions: for inhibition at 1 µM: read-out: Histamine Binding (1 μM) H1, percent inhibition of specific binding, 1 μM
Sequence of histamine receptor H1 (P35367 whole entry): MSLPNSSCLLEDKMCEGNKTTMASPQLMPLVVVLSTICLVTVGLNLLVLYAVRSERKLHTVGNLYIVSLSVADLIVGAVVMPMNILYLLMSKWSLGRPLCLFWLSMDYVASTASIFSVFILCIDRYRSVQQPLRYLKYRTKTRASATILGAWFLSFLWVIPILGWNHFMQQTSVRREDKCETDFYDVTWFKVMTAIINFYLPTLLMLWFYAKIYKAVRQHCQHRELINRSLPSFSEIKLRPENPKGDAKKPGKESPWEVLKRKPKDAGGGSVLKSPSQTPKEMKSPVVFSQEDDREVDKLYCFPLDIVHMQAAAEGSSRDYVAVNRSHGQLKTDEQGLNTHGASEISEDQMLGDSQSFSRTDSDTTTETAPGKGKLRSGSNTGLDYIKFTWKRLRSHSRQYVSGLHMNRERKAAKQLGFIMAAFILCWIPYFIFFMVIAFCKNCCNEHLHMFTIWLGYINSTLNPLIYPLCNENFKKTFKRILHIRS
Summary of the method: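 Values are percent inhibition of specific [3H]pyrilamine (1.2 nM) binding with compounds at ≤1 μM (1% DMSO vehicle); 180 min incubation at 25 °C, pH 7.4 Tris buffer, on CHO-expressed human H1 receptor; 1 μM pyrilamine defined nonspecific binding, bound ligand counted after filtration.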

[2] = target: T1, human recombinant histamine H2 receptor (Homo sapiens, UniProt P25021); experiment: Histamine H2 radioligand binding ([125I]Aminopotentidine); conditions: read-out: Histamine Binding (1 μM) H2, percent inhibition of specific binding, 1 μM
T1 construct: expressed in transfected cells; host or cells: Chinese hamster ovary (CHO) K1 cells
T1 sequence (P25021 whole entry): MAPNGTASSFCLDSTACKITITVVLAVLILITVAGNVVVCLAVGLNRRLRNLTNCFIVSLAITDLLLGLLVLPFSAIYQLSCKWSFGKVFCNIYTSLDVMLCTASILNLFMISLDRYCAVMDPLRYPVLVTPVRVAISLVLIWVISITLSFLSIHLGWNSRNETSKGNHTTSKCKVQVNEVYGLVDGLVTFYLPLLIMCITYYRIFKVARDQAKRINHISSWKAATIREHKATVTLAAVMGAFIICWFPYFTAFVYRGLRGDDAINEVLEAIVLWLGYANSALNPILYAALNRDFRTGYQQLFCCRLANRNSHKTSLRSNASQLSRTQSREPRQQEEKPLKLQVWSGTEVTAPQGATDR
Protocol: To evaluate in radioligand binding assays the activity of compounds of the invention, human recombinant histamine H2 receptor expressed in Chinese hamster ovary (CHO) K1 cells (Ruat, M., Proc. Natl. Acad. Sci. USA. 87(5):1658, 1990) in a 50 mM Phosphate buffer, pH 7.4 was used. Compounds of the invention were incubated with 0.1 nM [^125I]Aminopotentidine for 120 min. at 25° C. Non-specific binding was estimated in the presence of 3 μM Tiotidine. Receptor proteins were filtered and washed, the filters were then counted to determine [^125I]Aminopotentidine specifically bound.

[3] = target: human dopamine D2L receptor (Homo sapiens, UniProt P14416); experiment: Dopamine D2L radioligand binding ([3H]Spiperone); conditions: percent inhibition of specific binding, compound at 1 μM; for Inhibition of ligand binding, Dopamine D2L: 1 µM; for inhibition at 1 µM: read-out: Inhibition of ligand binding, Dopamine D2L
Sequence of human dopamine D2L receptor (P14416 whole entry): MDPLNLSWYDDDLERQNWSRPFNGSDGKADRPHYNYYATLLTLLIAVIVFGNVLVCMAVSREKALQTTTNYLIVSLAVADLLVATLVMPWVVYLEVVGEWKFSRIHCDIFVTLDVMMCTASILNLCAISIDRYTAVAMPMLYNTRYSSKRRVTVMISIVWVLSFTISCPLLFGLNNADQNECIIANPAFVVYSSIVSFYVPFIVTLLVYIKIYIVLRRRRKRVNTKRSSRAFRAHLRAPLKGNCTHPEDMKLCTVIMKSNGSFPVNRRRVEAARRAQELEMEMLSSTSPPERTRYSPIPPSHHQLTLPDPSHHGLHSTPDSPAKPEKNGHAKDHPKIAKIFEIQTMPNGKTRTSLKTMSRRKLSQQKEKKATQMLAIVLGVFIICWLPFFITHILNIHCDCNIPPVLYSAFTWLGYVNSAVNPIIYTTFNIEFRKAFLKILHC
Description: Non-specific binding was estimated in the presence of […] Haloperidol. Receptor proteins were filtered and washed, the filters were then counted to determine [^3H]Spiperone specifically bound. […] Biochemical assay results are presented as the percent inhibition of specific binding in Table 9.

[4] = target: T2, human recombinant serotonin (5-Hydroxytryptamine) 5-HT2A receptor (Homo sapiens, UniProt P28223); experiment: Serotonin 5-HT2A radioligand binding ([3H]Ketanserin); conditions: for inhibition at 0.1 µM: read-out: Inhibition of ligand binding, Serotonin 5-HT2A (percent inhibition of specific binding), compound at 0.1 μM; for inhibition at 1 µM: read-out: Inhibition of ligand binding, Serotonin 5-HT2A (percent inhibition of specific binding), compound at 1 μM
T2 construct: expressed in transfected cells; host or cells: Chinese hamster ovary (CHO-K1) cells
T2 sequence (P28223 whole entry): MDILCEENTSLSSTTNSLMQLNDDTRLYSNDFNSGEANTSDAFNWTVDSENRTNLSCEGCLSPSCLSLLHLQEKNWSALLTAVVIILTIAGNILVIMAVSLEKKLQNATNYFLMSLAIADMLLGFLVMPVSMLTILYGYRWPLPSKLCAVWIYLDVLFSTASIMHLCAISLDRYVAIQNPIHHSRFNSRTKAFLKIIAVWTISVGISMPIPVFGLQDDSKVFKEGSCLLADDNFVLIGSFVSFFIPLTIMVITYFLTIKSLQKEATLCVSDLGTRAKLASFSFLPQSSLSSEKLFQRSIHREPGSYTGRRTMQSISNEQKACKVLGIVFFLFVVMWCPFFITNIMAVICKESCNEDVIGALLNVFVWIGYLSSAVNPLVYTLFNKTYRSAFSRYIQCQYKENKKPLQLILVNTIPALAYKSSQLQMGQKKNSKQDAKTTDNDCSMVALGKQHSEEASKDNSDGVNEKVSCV
Protocol: Compounds of the invention were incubated with 0.5 nM [^3H]Ketanserin for 60 min. at 25° C. Non-specific binding was estimated in the presence of 1 μM Mianserin. Receptor proteins were filtered and washed, the filters were then counted to determine [^3H]Ketanserin specifically bound.

[5] = target: T3, human recombinant serotonin (5-Hydroxytryptamine) 5-HT2C receptor (Homo sapiens, UniProt P28335); experiment: Serotonin 5-HT2C radioligand binding ([3H]Mesulergine); conditions: read-out: Inhibition of ligand binding, Serotonin 5-HT2C (percent inhibition of specific binding); for inhibition at 0.1 µM: compound at 0.1 μM; for inhibition at 1 µM: compound at 1 μM
T3 construct: expressed in transfected cells; host or cells: Chinese hamster ovary (CHO-K1) cells
T3 sequence (P28335 33-458): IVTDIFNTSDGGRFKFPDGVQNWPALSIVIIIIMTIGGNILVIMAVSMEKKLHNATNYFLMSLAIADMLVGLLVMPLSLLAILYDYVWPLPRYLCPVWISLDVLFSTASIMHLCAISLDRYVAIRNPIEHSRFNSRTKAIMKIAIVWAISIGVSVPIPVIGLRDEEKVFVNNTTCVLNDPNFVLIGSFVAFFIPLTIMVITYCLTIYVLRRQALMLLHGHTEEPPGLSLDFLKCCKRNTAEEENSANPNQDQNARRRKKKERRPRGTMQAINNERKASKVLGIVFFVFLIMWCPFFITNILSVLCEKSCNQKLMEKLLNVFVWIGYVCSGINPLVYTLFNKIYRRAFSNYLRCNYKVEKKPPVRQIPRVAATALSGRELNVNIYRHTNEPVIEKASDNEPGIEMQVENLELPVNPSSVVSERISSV
Summary of the method: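 Compounds tested at 1 μM or lower (1% DMSO vehicle) for displacement of 1 nM [3H]Mesulergine over 60 min at 25° C. Specific binding determined by filtration counting, with 1 μM Mianserin defining non-specific binding; values are percent inhibition.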

[6] = target: T4, human recombinant serotonin (5-Hydroxytryptamine) 5-HT6 receptor (Homo sapiens, UniProt P50406); experiment: Serotonin 5-HT6 radioligand binding ([3H]LSD); conditions: read-out: Inhibition of ligand binding, Serotonin 5-HT6 (percent inhibition of specific binding); for inhibition at 0.1 µM: compound at 0.1 μM; for inhibition at 1 µM: compound at 1 μM
T4 construct: expressed in transfected cells; host or cells: human HeLa cells
T4 sequence (P50406 whole entry): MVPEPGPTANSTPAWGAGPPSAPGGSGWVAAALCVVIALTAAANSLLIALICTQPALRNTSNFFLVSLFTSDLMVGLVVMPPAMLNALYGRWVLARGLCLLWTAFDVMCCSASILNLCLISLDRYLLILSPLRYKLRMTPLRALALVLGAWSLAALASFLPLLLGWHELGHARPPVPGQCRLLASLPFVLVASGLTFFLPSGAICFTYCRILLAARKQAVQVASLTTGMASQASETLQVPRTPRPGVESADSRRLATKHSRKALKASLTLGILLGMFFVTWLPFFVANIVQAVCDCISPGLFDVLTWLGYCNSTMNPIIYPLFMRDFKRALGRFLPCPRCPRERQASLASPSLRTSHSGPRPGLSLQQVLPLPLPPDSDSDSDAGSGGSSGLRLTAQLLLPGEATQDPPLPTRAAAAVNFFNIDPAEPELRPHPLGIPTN
Protocol: Compounds of the invention were incubated with 1.5 nM [3H]Lysergic acid diethylamide (LSD) for 120 min. at 37° C. […] Receptor proteins were filtered and washed, the filters were then counted to determine [3H]LSD specifically bound. Compounds were screened at 1 μM or lower, using 1% DMSO as vehicle. Biochemical assay results are presented as the percent inhibition of specific binding in Table 10.

[7] = target: human recombinant serotonin (5-Hydroxytryptamine) 5-HT7 receptor (Homo sapiens, UniProt P34969); experiment: Serotonin 5-HT7 radioligand binding ([3H]LSD); conditions: read-out: Inhibition of ligand binding, Serotonin 5-HT7 (percent inhibition of specific binding); for inhibition at 1 µM: compound at 1 μM
Sequence of human recombinant serotonin (5-Hydroxytryptamine) 5-HT7 receptor (P34969 whole entry): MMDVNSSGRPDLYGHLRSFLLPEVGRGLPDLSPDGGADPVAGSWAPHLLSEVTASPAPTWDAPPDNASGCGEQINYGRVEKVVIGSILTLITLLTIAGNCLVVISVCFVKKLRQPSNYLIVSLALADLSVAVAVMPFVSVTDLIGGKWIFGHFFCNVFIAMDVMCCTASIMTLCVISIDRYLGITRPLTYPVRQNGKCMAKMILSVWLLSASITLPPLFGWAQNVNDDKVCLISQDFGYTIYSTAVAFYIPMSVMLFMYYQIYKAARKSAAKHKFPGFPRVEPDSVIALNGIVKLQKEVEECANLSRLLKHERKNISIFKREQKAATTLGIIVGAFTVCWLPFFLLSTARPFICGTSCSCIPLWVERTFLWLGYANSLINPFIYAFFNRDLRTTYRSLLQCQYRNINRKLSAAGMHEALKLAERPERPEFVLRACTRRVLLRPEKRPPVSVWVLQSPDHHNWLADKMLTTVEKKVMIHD
Description: Receptor proteins were filtered and washed, the filters were then counted to determine [^3H]LSD specifically bound.

Structure (SMILES)	Histamine Binding (1 μM) H1, percent inhibition of specific binding [1]	inhibition at 1 µM [1] [%]	inhibition at 1 µM [2] [%]	Inhibition of ligand binding, Dopamine D2L [3] [%]	inhibition at 1 µM [3] [%]	inhibition at 0.1 µM [4] [%]	inhibition at 1 µM [4] [%]	inhibition at 0.1 µM [5] [%]	inhibition at 1 µM [5] [%]	inhibition at 0.1 µM [6] [%]	inhibition at 1 µM [6] [%]	inhibition at 0.1 µM ([7]; compound at 0.1 μM) [%]	inhibition at 1 µM [7] [%]
C/C(=C\n1c2c(c3cc(F)ccc31)CN(C)CC2)c1ccncc1 [Compound 216, (E)-8-fluoro-2-methyl-5-(2-(pyridin-4-yl)prop-1-enyl)-2,3,4,5-tetrahydro-1H-pyrido[4,3-b]indole]	49%	47	61	98	97	98	99	83	94	100	104	66	79
C/C(=C\n1c2c(c3cc(C)ccc31)CN(C)CC2)c1cc(Cl)cc(Cl)c1 [Compound 218, (E)-5-(2-(3,5-dichlorophenyl)prop-1-enyl)-2,8-dimethyl-2,3,4,5-tetrahydro-1H-pyrido[4,3-b]indole]	78% and 79%		98	43	40	94	99	92	96	85	99		93
C/C(=C\n1c2c(c3ccc(Cl)cc31)CN(C)CC2)c1ccncc1 [Compound 219, (E)-7-chloro-2-methyl-5-(2-(pyridin-4-yl)prop-1-enyl)-2,3,4,5-tetrahydro-1H-pyrido[4,3-b]indole]	66%	60	82	97	96	100	101	94	98	96	102		94
C/C(=C/n1c2c(c3cc(C)ccc31)CN(C)CC2)c1cc(F)c(F)cc1Cl [Compound 220, (Z)-5-(2-(2-chloro-4,5-difluorophenyl)prop-1-enyl)-2,8-dimethyl-2,3,4,5-tetrahydro-1H-pyrido[4,3-b]indole]		91	99		32		99		98		99		104
C/C(=C\n1c2c(c3cc(C)ccc31)CN(C)CC2)c1cc(F)c(F)cc1Cl [Compound 221, (E)-5-(2-(2-chloro-4,5-difluorophenyl)prop-1-enyl)-2,8-dimethyl-2,3,4,5-tetrahydro-1H-pyrido[4,3-b]indole]		90	98		34		97		99		95		93
C/C(=C\n1c2c(c3cccc(Cl)c31)CN(C)CC2)c1ccncc1 [Compound 222, (E)-6-chloro-2-methyl-5-(2-(pyridin-4-yl)prop-1-enyl)-2,3,4,5-tetrahydro-1H-pyrido[4,3-b]indole]		25	91		82		100		99		102		69
C/C(=C/n1c2c(c3cc(C)ccc31)CN(C)CC2)c1cccc(F)c1 [Compound 225, (Z)-5-(2-(3-fluorophenyl)prop-1-enyl)-2,8-dimethyl-2,3,4,5-tetrahydro-1H-pyrido[4,3-b]indole]		81	98		43		99		100		103		94
C/C(=C\n1c2c(c3cc(C)ccc31)CN(C)CC2)c1cccc(F)c1 [Compound 226, (E)-5-(2-(3-fluorophenyl)prop-1-enyl)-2,8-dimethyl-2,3,4,5-tetrahydro-1H-pyrido[4,3-b]indole]		71	100		46		98		100		101		100
C/C(=C\n1c2c(c3ccc(F)cc31)CN(C)CC2)c1ccc(F)cc1 [Compound 227, (E)-7-fluoro-5-(2-(4-fluorophenyl)prop-1-enyl)-2-methyl-2,3,4,5-tetrahydro-1H-pyrido[4,3-b]indole]		52	101		97		103		103		107		90
C/C(=C\n1c2c(c3ccc(Cl)cc31)CN(C)CC2)c1ccc(F)cc1 [Compound 228, (E)-7-chloro-5-(2-(4-fluorophenyl)prop-1-enyl)-2-methyl-2,3,4,5-tetrahydro-1H-pyrido[4,3-b]indole]		66	102		98		101		97		106		97
C/C(=C\n1c2c(c3ccc(C(F)(F)F)cc31)CN(C)CC2)c1ccc(F)cc1 [Compound 229, (E)-5-(2-(4-fluorophenyl)prop-1-enyl)-2-methyl-7-(trifluoromethyl)-2,3,4,5-tetrahydro-1H-pyrido[4,3-b]indole]		54	96		100		100		100		107		89
C/C(=C\n1c2c(c3cc(C)ccc31)CN(C)CC2)c1ccc(F)c(F)c1 [Compound 230, (E)-5-(2-(3,4-difluorophenyl)prop-1-enyl)-2,8-dimethyl-2,3,4,5-tetrahydro-1H-pyrido[4,3-b]indole]		35	96		44		98		100		97		93
C/C(=C\n1c2c(c3cc(C)ccc31)CN(C)CC2)c1ccc(Cl)c(Cl)c1 [Compound 231, (E)-5-(2-(3,4-dichlorophenyl)prop-1-enyl)-2,8-dimethyl-2,3,4,5-tetrahydro-1H-pyrido[4,3-b]indole]		58	97		40		101		98		97		94
